Assay results as given in US9440988B2, “Regulators of the hedgehog pathway, compositions and uses related thereto” (John Hopkins University School of Medicine, priority 1008, dated 2016).

How the values were obtained:
[1] = tested on: Shh pathway activity in Ptc1−/− cells
From the text: Since β-galactosidase is expressed from the Ptc1 locus, its expression reflects the activity of the Shh pathway. A representative experiment is shown. […] Cultures of NIH-3T3 cells were transfected (in triplicate) with Gli-luciferase reporter, TK-Renilla luciferase control vector and Smo or SmoA1 expression vectors. Smo DNA was used at 50% w/w, and SmoA1 at 50%, 5%, and 0.5% w/w. […] Error bars indicate one standard deviation. The leftmost four bars, shown for comparison, are as in FIG. 2C. […] NIH-3T3 cells were transfected with Gli-luc reporter, TK-Renilla, Ptc1CTD and SmoA1 expression vectors (Ptc to Smo DNA ratio=9). […] A representative experiment is shown. […] NIH-3T3 cells were cotransfected with Gli-luc reporter, β-galactosidase transfection control, and a control vector or an expression vector encoding the indicated Smo-Renilla luciferase fusion protein. In the representative experiment shown, Shh pathway activity and Smo protein levels were measured as firefly and Renilla luciferase activities relative to β-galactosidase, respectively.
(§1) Relative reporter activity is normalized to maximum. […] Error bars in A and B indicate one standard deviation.
Mice lacking function of Ptc1 display widespread activation of targets of Shh signaling, including of the Ptc1 gene itself (L. V. Goodrich, L. Milenkovic, K. M. Higgins, M. P. Scott, Science 277, 1109 (1997)). As β-galactosidase is expressed under the control of the Ptc1 promoter in these cells, β-galactosidase expression can be used to assay the state of Shh pathway activity (FIG. 3A).

Sonic hedgehog signaling = experiment: Clonal NIH-3T3 line with stably integrated Shh-responsive luciferase reporter (Shh-LIGHT/Shh-LIGHT2), inhibition of Sonic hedgehog induction; assay type: cell-based, mouse
From the text: FIG. 2 relates to a sensitive assay for Shh signaling in NIH-3T3 cells. (A) Purification of cholesterol- and palmitate-modified mouse Sonic hedgehog signaling domain ShhNp. Detergent-insoluble proteolipid complexes were isolated from 293 cells expressing full-length Shh (M. K. Cooper, J. A. Porter, K. E. Young, P. A. Beachy, Science 280, 1603 (1998)), and ShhNp was purified to apparent homogeneity by immunoaffinity chromatography. […] We therefore used the detergent insolubility of cholesterol-modified ShhN and affinity chromatography to purify the processed ShhN protein (ShhNp) from a human 293 cell line engineered to express the full length mouse Shh construct. Detergent-insoluble complexes (DIGs) were isolated as described by Brown and Rose (1992), with the following modifications. Cells from a 150 mm dish were lysed and collected in 2 mL of lysis solution (10 mM NaHPO4, pH 6.5, 150 mM NaCl, 0.5 mM PMSF, 1% Triton X-100, 2 μg/ml Pepstatin A, 10 μg/ml leupeptin, 5 μg/ml aprotinin, 2 μg/ml E64) at 4° C. […] Low-density, flocculent material was collected (from original position of 18.125% step), diluted 5-fold in 10 mM NaHPO4, pH 6.5, 150 mM NaCl and harvested by centrifugation at 20,000×g for 15 min (all at 4° C.). […] Mass standards migrated as indicated. […] NIH-3T3 cells cotransfected with Gli-luc reporter and TK promoter-driven Renilla luciferase control were treated with the indicated concentrations of ShhNp for 2 days. Confluent cultures of NIH-3T3 cells were plated at 1:6 dilution to 24 or 96-well plates. On the following day, the cells were transfected with renilla luciferase (pRL-TK or pRL-SV40; Clontech) or β-galactosidase transfection control (10% w/w DNA), Gli-Luc reporter (40%) and the constructs indicated (50%) using Fugene 6 (Roche) transfection reagent (250 ng (24 well plate) or 100 ng (96 well plate) DNA/well, 3:1 ratio (v/w) of reagent to DNA). […] Firefly and Renilla luciferase and β-galactosidase activities were assayed from the cell lysates by luminometry using dual luciferase (Promega) and Galacto-Light (Tropix) kits, respectively. Luciferase activities are normalized relative to control; a representative experiment is shown. […] Error bars indicate one standard deviation. […] Cultures of Shh-LIGHT (open boxes) or SmoA1-LIGHT (filled diamonds) cells were plated to 96-well plates in a series of twofold dilutions. The NIH-3T3 cell clone Shh-LIGHT and Shh-LIGHT2 stably incorporating the Gli-luc reporter and TK-renilla vectors were established by cotransfection with a vector encoding G418 resistance (pSV-Neo), followed by selection with G418 and cell cloning. Subsequently, a clonal subline of Shh-LIGHT expressing activated Smo (SmoA1-LIGHT) was established using an expression vector that allows hygromycin selection (pcDNA3.1+ hygro; Invitrogen). […] The Shh-LIGHT cells were treated with 4 nM ShhNp, and Gli-luciferase reporter activity was assayed after 24 h. Fold induction of the reporter (% of maximum is relative to equally dense Shh-LIGHT control culture) and cell densities (% of maximum Renilla luciferase activity) were measured at the end of the experiment. Error bars indicate one standard deviation (quadruplicate wells).
as §1

[2] = tested on: P2A6 fibrosarcoma cells derived from Ptc−/− embryonic fibroblasts; experiment: Subcutaneous P2A6 fibrosarcoma tumors in female nude mice; assay type: in vivo, mouse; conditions: for differentiation status of tumors: compared with the tomatidine-treated control, FIG. 7; for Ki-67 proliferation rate: tumors after four days of treatment, blinded pathologist
Experimental: Female nude mice were injected subcutaneously with 5 million P2A6 fibrosarcoma cells derived from Ptc−/− embryonic fibroblasts. Three weeks after injection, each mouse had developed a discrete subcutaneous tumor. Each tumor was measured and treatments were initiated on the same day. […] The mice were killed, and tumors were measured and dissected out for histopathologic analysis. Tumor volumes were calculated as the product of length x width. The samples were paraformaldehyde-fixed and paraffin-embedded, and slides were cut for hematoxylin and eosin staining and for immunohistochemistry with polyclonal antibodies against the proliferation marker Ki-67 (Novacastra NCL-Ki67p; assay performed according to manufacturer's directions).

activated Smo (SmoA1) = experiment: Gli-luciferase reporter activity in cells expressing activated Smo (SmoA1-LIGHT); assay type: cell-based, mouse
From the text: FIG. 2 relates to a sensitive assay for Shh signaling in NIH-3T3 cells. (A) Purification of cholesterol- and palmitate-modified mouse Sonic hedgehog signaling domain ShhNp. Detergent-insoluble proteolipid complexes were isolated from 293 cells expressing full-length Shh (M. K. Cooper, J. A. Porter, K. E. Young, P. A. Beachy, Science 280, 1603 (1998)), and ShhNp was purified to apparent homogeneity by immunoaffinity chromatography. […] We therefore used the detergent insolubility of cholesterol-modified ShhN and affinity chromatography to purify the processed ShhN protein (ShhNp) from a human 293 cell line engineered to express the full length mouse Shh construct. Detergent-insoluble complexes (DIGs) were isolated as described by Brown and Rose (1992), with the following modifications. Cells from a 150 mm dish were lysed and collected in 2 mL of lysis solution (10 mM NaHPO4, pH 6.5, 150 mM NaCl, 0.5 mM PMSF, 1% Triton X-100, 2 μg/ml Pepstatin A, 10 μg/ml leupeptin, 5 μg/ml aprotinin, 2 μg/ml E64) at 4° C. […] Fold induction of the reporter (% of maximum is relative to equally dense Shh-LIGHT control culture) and cell densities (% of maximum Renilla luciferase activity) were measured at the end of the experiment. […]

p2PTC−/− cells = conditions: even at the highest doses used, 2 d
From the text: as §1

Hedgehog signaling = Hedgehog signaling assay in Drosophila c1-8 cells; assay type: cell-based; conditions: not shown
From the text: Cellular responses to the Hh signal are controlled by two multi-pass transmembrane proteins, Smo and Ptc1, predicted to have seven and twelve transmembrane spans, respectively. Smo is related to the Frizzled family of Wnt receptors and more distantly to the secretin family of G protein-coupled receptors (M. R. Barnes, D. M. Duckworth, L. J. Beeley, Trends Pharmacol Sci 19, 399 (1998)).

NIH-3T3 cells = conditions: data not shown
Shh pathway = experiment: Gli-luciferase reporter assay for Shh signaling in transiently transfected NIH-3T3 cells; assay type: cell-based, mouse; conditions: ShhNp-treated NIH-3T3 cells (FIG. 2C: ShhNp 4 nM, cyclopamine 5 μM, 2 d)
[3] = nude mice, once daily intraperitoneal, four days, one mouse per treatment

Molecule: 3-keto, N-aminoethyl aminocaproyl dihydrocinnamoyl cyclopamine [KAAD cyclopamine]
- blocking/suppression of pathway activity in cells lacking Ptc1 function [1]: can block
- potency relative to cyclopamine in p2PTC−/− cells ([1]; FIG. 4B, 2 d): higher potency
- minimum normalized β-galactosidase activity ([1]; p2PTC−/− cells, 2 d, normalized to cell mass, set to 0): 191
- Maximum normalized β-galactosidase activity ([1]; p2PTC−/− cells, 2 d, normalized to cell mass, set to 1): 1103
- potency in suppression of ShhNp-induced pathway activity relative to cyclopamine (Sonic hedgehog signaling): 10-20 fold
- differentiation status of tumors [2]: greater degree of differentiation
- decrease of tumor size [2, 3]: 19%
- Ki-67 proliferation rate [2]: 12%
- blocking of pathway activation by tumor-derived / constitutively activated Smo (activated Smo (SmoA1)): can block
- concentration suppressing SmoA1-induced reporter activity relative to that required for suppression of ShhNp signaling (activated Smo (SmoA1); higher, FIG. 4A): approximately 10 fold
- Significant toxicity (microscopically visible cell death, or decrease in Cell Titer reading) (p2PTC−/− cells): not observed

Molecule: CC1=C2C[C@H]3[C@@H](CC=C4C[C@@H](O)CC[C@@]43C)[C@@H]2CC[C@]12O[C@@H]1C[C@H](C)CN[C@H]1[C@H]2C [Compound 1, cyclopamine]
- sensitivity of Hedgehog signaling assay to the substance (Hedgehog signaling): resistant
- β-galactosidase expression [1]: significantly suppressed
- differentiation status of tumors [2]: greater degree of differentiation
- decrease of tumor size [2, 3]: 0.14%
- Ki-67 proliferation rate [2]: 16%
- concentration range in which toxic effects emerge (NIH-3T3 cells): 10 to 40 µM
- Significant toxicity (microscopically visible cell death, or decrease in Cell Titer reading) (p2PTC−/− cells): not observed

Molecule: C[C@H]1CC[C@]2(NC1)O[C@H]1C[C@H]3[C@@H]4CC[C@H]5C[C@@H](O)CC[C@]5(C)[C@H]4CC[C@]3(C)[C@H]1[C@@H]2C [tomatidine]
- tumor growth over the treatment period [2, 3]: 17%
- Ki-67 proliferation rate [2]: 30%

Molecule: forskolin
- induction of reporter by ShhNp (Shh pathway): prevented induction
